Assay results as given in PMC8470104, “Anti-Metatype Antibody Screening, Sandwich Immunoassay Development, and Structural Insights for β-Lactams Based on Penicillin Binding Protein” (Molecules, 2021).

How the values were obtained:
PBP2x* = PBP2x* (Streptococcus pneumoniae, UniProt P14677); assay: direct competitive ELISA, binding affinity of β-lactams to PBP2x*; conditions: for IC50: IC50 (affinity to PBP2x*)
Text: The anti-metatype antibodies that recognize the complex formed by the receptor and ligand was developed by immunization. The success of the immunization depends on the stability of the receptor–drug complex. In the present study, we hypothesized that the complex formed by PBP2x* and β-lactams with high affinity to PBP2x* would achieve higher stability, because more non-covalent bonds typically tend to form between the two. In addition, the conformational change of PBP2x* induced by the combination of the β-lactams with high affinity may be greater due to the existence of more interaction forces, which stimulate the PBP2x* to some extent. Therefore, a direct competitive ELISA was carried out to determine the affinity of 18 β-lactams to PBP2x*. […] In the cephalosporin group, CPZ, CFN, CFZ, and CFM performed poorly: affinities with IC50 were greater than 10 ng/mL, which was almost 2–50-fold that of other drugs such as CTRX, CTX, and KF. (Table 2). Therefore, for the preparation of anti-metatype antibodies, five β-lactams (including PNG, AMP, AMX, CTX, and KF) with high affinity to PBP2x* were selected to form a complex with PBP2x*.
The PBP2x* (100 μL/well) was diluted to an appropriate concentration and coated on microtiter plates, and incubated overnight at 4 °C. After the solution was poured, the plates were washed 3 times with washing buffer and patted dry. Then, 150 μL of blocking solution was added to each well, followed by 1 h of incubation at 37 °C. The β-lactam standards (50 μL), which were diluted to a series of concentrations, were added into each well, then 50 μL of the enzyme marker prepared in our previous study was added, and incubated at 37 °C for 30 min. After the washing procedure, the color was developed by adding tetramethylbenzidine (TMB) substrate. Finally, 2 M H2SO4 (50 μL/well) was used to stop the enzymatic reaction, and the optical density (OD) values of 450 nm was measured.

[1] = test system: PBP2x*-β-lactam complexes; assay: sandwich immunoassay of 18 PBP2x*-β-lactam complexes (capture mAb 4H11, detection pAb #5); type: binding; conditions: 1000 ng/mL; mAb 4H11 capture, pAb #5 detection; n = 3; S/N > 1 positive detection
Experimental: Microtiter plates were coated with 100 μL anti-mouse IgG antibody in CB buffer and incubated at 4 °C overnight. The plates were subsequently washed and blocked with 150 μL of 2% skim milk. Then, 100 μL of diluted mAb was added to the wells and incubated for 1 h at 37 °C. After washing, 100 μL individual PBP2x* or receptor–ligand complexes of 18 β-lactams with PBP2x* that were diluted to 1 μg/mL was added. The incubation was carried out at 37 °C for 1 h, followed by another washing procedure. Then, 100 μL diluted HRP-labeled pAb was added to the wells and incubated for 1 h at 37 °C. The TMB substrate solution was added after washing, followed by the addition of 2 M H2SO4 to stop the reaction, and finally the OD values were measured at 450 nm.

[2] = PBP2x* coated, enzyme marker competitor

Sequence of PBP2x* (P14677 49-750): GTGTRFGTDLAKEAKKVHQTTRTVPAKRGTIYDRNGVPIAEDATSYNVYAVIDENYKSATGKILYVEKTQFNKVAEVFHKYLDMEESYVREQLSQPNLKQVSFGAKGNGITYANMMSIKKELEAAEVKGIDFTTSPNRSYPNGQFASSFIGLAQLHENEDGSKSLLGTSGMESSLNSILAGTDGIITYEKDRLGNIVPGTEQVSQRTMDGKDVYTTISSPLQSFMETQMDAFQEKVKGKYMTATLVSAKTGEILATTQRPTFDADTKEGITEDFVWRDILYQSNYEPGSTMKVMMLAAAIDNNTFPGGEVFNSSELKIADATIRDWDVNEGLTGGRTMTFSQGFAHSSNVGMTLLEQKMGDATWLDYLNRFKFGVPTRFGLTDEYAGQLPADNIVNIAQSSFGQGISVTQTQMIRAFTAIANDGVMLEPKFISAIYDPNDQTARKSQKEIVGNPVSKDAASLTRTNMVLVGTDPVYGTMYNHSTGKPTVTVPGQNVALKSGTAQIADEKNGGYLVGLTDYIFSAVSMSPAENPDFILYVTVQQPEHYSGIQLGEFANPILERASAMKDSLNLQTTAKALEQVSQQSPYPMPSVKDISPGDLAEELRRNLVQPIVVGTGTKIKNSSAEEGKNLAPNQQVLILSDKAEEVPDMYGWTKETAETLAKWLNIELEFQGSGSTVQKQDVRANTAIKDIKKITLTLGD

SMILES | affinity to PBP2x* (in words) (PBP2x*) | IC50 (PBP2x*; [2]) [nM] | Signal-to-noise ratio (S/N) of the sandwich immunoassay [1] | IC50 (affinity to PBP2x*) (PBP2x*; [2]) [ng/mL]
CC1(C)S[C@@H]2[C@H](NC(=O)[C@H](N)c3ccccc3)C(=O)N2[C@H]1C(=O)O [AMP, Ampicillin] | high affinity | 22.3 | < 1 | 
CC1(C)S[C@@H]2[C@H](NC(=O)[C@H](N)c3ccc(O)cc3)C(=O)N2[C@H]1C(=O)O [AMX, Amoxicillin] | high affinity | 18.7 | < 1 | 
CC1(C)S[C@@H]2[C@H](NC(=O)[C@H](NC(=O)N3CCNC3=O)c3ccccc3)C(=O)N2[C@H]1C(=O)O [AZL, Azlocillin] | high affinity | 14.5 |  | 
CC(=O)OCC1=C(C(=O)O)N2C(=O)[C@@H](NC(=O)CSc3ccncc3)[C@H]2SC1 [CFAP, Cefapirin] |  | 14.3 |  | 
C=CC1=C(C(=O)O)N2C(=O)[C@@H](NC(=O)/C(=N\OCC(=O)O)c3csc(N)n3)[C@H]2SC1 [CFM, Cefixime] |  | 64.7 |  | 
NC(=O)c1cc[n+](CC2=C(C(=O)[O-])N3C(=O)[C@@H](NC(=O)Cc4cccs4)[C@H]3SC2)cc1 [CFN, Cefalonium] |  | 33.4 |  | 
CO/N=C(\C(=O)N[C@@H]1C(=O)N2C(C(=O)[O-])=C(C[N+]3(C)CCCC3)CS[C@H]12)c1csc(N)n1 [CFP, Cefepime] |  | 15.2 |  | 
CO/N=C(\C(=O)N[C@@H]1C(=O)N2C(C(=O)O)=C(CSC(=O)c3ccco3)CS[C@H]12)c1csc(N)n1 [CFT, Ceftiofur] |  | 5.02 |  | 
Cc1nnc(SCC2=C(C(=O)O)N3C(=O)[C@@H](NC(=O)Cn4cnnn4)[C@H]3SC2)s1 [CFZ, Cefazolin] |  | 53.6 |  | 
Cc1onc(-c2ccccc2Cl)c1C(=O)N[C@@H]1C(=O)N2[C@@H]1SC(C)(C)[C@@H]2C(=O)O [CLX, Cloxacillin] | relatively poor affinity | 173 |  | 
CCN1CCN(C(=O)N[C@@H](C(=O)N[C@@H]2C(=O)N3C(C(=O)O)=C(CSc4nnnn4C)CS[C@H]23)c2ccc(O)cc2)C(=O)C1=O [CPZ, Cefoperazone] |  | 155 |  | 
CO/N=C(\C(=O)N[C@@H]1C(=O)N2C(C(=O)O)=C(CSc3nc(=O)c(=O)[nH]n3C)CS[C@H]12)c1csc(N)n1 [CTRX, Cefatriaxone] |  | 4.24 |  | 
CO/N=C(\C(=O)N[C@@H]1C(=O)N2C(C(=O)O)=C(COC(C)=O)CS[C@H]12)c1csc(N)n1 [CTX, Cefotaxime] | high affinity | 10.4 |  | 
Cc1onc(-c2c(Cl)cccc2Cl)c1C(=O)N[C@@H]1C(=O)N2[C@@H]1SC(C)(C)[C@@H]2C(=O)O [DCX, Dicloxacillin] | relatively poor affinity | 32.6 |  | 
CC(=O)OCC1=C(C(=O)O)N2C(=O)[C@@H](NC(=O)Cc3cccs3)[C@H]2SC1 [KF, Cefalothin] | high affinity |  | < 1 | 7.89
Cc1onc(-c2ccccc2)c1C(=O)N[C@@H]1C(=O)N2[C@@H]1SC(C)(C)[C@@H]2C(=O)O [OXA, Oxacillin] | relatively poor affinity | 25.1 |  | 
CCN1CCN(C(=O)N[C@@H](C(=O)N[C@@H]2C(=O)N3[C@@H]2SC(C)(C)[C@@H]3C(=O)O)c2ccccc2)C(=O)C1=O [PIPC, Piperacillin] | high affinity | 15 |  | 
CC1(C)S[C@@H]2[C@H](NC(=O)Cc3ccccc3)C(=O)N2[C@H]1C(=O)O [PNG, Penicillin G] | high affinity | 10.6 | < 1 | 
